Results as given in patent US20250114367A1, “METHOD OF TREATING HAIR LOSS DISORDERS” (Sun Pharmaceutical Industries, Inc., priority 2023, published 2025).
Where two headings read alike, the source gives them in different places.

Experiments:
Type in all cases: in vivo, human
[1] = tested on: adult subjects with moderate to severe AA; assay: Phase III trial: Clinical Global Impression of Severity (CGI-S)
Experimental: The CGI-S was assessed by the investigator and considered the severity of the subject's alopecia at the time of assessment. The investigator selected 1 of 7 numeric choices representing “Among the most extreme hair loss” to “Normal, no hair loss.” To reduce variability, 1 rater was to perform the CGI-S assessment for the subject. The definitions of the numeric choices is as follows: 1=normal, no hair loss; 2=borderline hair loss; 3=mild hair loss; 4=moderately hair loss; 5=marked hair loss; 6=severe hair loss; 7=among the most extreme hair loss.
(§1) A Phase III trial was conducted to assess the efficacy and safety of CTP-543 in adult subjects with moderate to severe AA. Approximately 440 adult male and female subjects 18 to 65 years of age, inclusive, with moderate to severe AA participated in the study. Subjects with definitive diagnosis of AA, and at least 50% hair loss, as defined by a SALT score ≥50, who met all of the inclusion criteria and none of the exclusion criteria participated in the study.
(§2) The Screening Period lasted up to 28 days prior to initiation of study drug. […] Randomization was stratified by scalp hair loss into 1 of the following 2 categories: 1) partial scalp hair loss (SALT ≥50 and <95), 2) complete or near complete scalp hair loss (SALT ≥95).
(§3) Additional secondary efficacy endpoints included the following: • Relative change in SALT scores from baseline at Weeks 4, 8, 12, 16, 20, and 24. • Percentage of responders (defined as “much improved” or “very much improved”) using the Clinical Global Impression of Improvement (CGI-I) at Weeks 12, 16, 20, and 24. • Percentage of responders (defined as “much improved” or “very much improved”) using the Patient Global Impression of Improvement (PGI-I) at Weeks 12, 16, 20, and 24. • Change from baseline in the Clinical Global Impression of Severity (CGI-S) at Weeks 12, 16, 20, and 24. • Change from baseline in the Patient Global Impression of Severity (PGI-S) at Weeks 12, 16, 20, and 24. • Change from baseline on the Brigham Eyebrow Tool for Alopecia (BETA) score at Weeks 12 and 24. • Change from baseline on the Brigham Eyelash Tool for Alopecia (BELA) score at Weeks 12 and 24. • Percentage of subjects achieving at least a 75% relative reduction in SALT score from baseline at Weeks 12 and 24. • Percentage of subjects achieving at least a 90% relative reduction in SALT score from baseline at Weeks 12 and 24. • Percentage of responders (defined as “satisfied” or “very satisfied”) on the SPRO scale at Weeks 12, 16, and 20. • Change from baseline in the SPRO scale at Weeks 12, 16, 20, and 24. • Percentage of subjects achieving a ≥2-point change from baseline in the SPRO scale at Weeks 12, 16, 20, and 24. • Change from baseline on the individual items of the Hair Quality Patient Reported Outcome (QPRO) scale at Weeks 12, 16, 20, and 24. • Change from baseline in the depression scale of the Hospital Anxiety and Depression Scale (HADS) at Week 24. • Change from baseline in the anxiety scale of the HADS at Week 24. • Percentage of subjects achieving an absolute SALT score of ≤20 at Week 4. • Percentage of subjects achieving an absolute SALT score of ≤10 at Week 24
A decrease in CGI-I score indicates improvement (impression is decreased severity). Similar to other endpoints, decreases favoring the active group over placebo were observed beginning at Week 12 and continuing through Week 24, and the magnitude of the differences increased at each subsequent time point. […] Detailed data for each time point are described below.

[2] = tested on: adult subjects with moderate to severe AA; assay: Phase III trial: Patient Global Impression of Severity (PGI-S)
Experimental: The PGI-S was assessed by the subject and considered the severity of his/her alopecia areata at the time of assessment. The subject selected 1 of 7 numeric choices representing “Among the most extreme hair loss” to “Normal, no hair loss.” The definitions of the numeric choices is as follows: 1=normal, no hair loss; 2=borderline hair loss; 3=mild hair loss; 4=moderately hair loss; 5=marked hair loss; 6=severe hair loss; 7=among the most extreme hair loss.
as §1, §2, §3
A decrease from baseline indicates improvement (impression is decreased severity). The LS mean treatment group difference was in favor of the CTP-543 groups over the placebo group at all timepoints evaluated. […] Detailed data for each time point are described below.

[3] = Renal impairment study: PK after a single 12 mg oral dose of CTP-543; settings: for Tmax / AUC(0-t) / AUC(0-inf) / Cmax / Vd/F / half-life: human, plasma, po, 12 mg; for Tmax / AUC(0-t) / AUC(0-inf) / Cmax / Vd/F / half-life / CL/F (geometric mean) / Clast (geometric mean): single 12 mg oral dose of CTP-543, outlier excluded; for AUC(0-t): read-out: AUC0-Tlast (geometric mean); for AUC(0-inf): read-out: AUC0-inf (geometric mean); for Cmax: read-out: Cmax (geometric mean); for Vd/F: read-out: Vz/F (geometric mean); for half-life: read-out: terminal elimination half-life (geometric mean) (converted)
From the text: The study enrolled 8 subjects in the normal renal function cohort, and 8 subjects in the moderate impaired renal function cohort.
The primary endpoint of this study was single dose PK exposure parameters: Cmax, AUC(0-Tlast), and AUC(0-∞).
The secondary endpoints of this study were: • Adverse Events, clinical laboratory findings, physical examinations, ECGs, and vital signs. • Other PK parameters, such as, but not limited to: Tmax, λz, t1/2, CL/F, and Vz/F.
All subjects had samples collected for PK.
PK parameters were determined using non-compartmental analysis (NCA) methods based on individual plasma concentration-time data for all PK analytes.

[4] = compared to healthy control subjects
[5] = moderate renal impairment N = 7

For `[2H]C1([2H])C([C@@H](CC#N)n2cc(-c3ncnc4[nH]ccc34)cn2)C([2H])([2H])C([2H])([2H])C1([2H])[2H]` [CTP-543, (R)-3-(4-(7H-pyrrolo[2,3-d]pyrimidin-4-yl)-1H-pyrazol-1-yl)-3-(cyclopentyl-2,2,3,3,4,4,5,5-d8) propanenitrile], which “CGI-S, LS mean change from baseline” value ([1]; Week 12, 8 mg BID) is on record?
Its value is −1.3.

And the “CGI-S, LS mean change from baseline” value ([1]; Week 12, 12 mg BID)?
Its value is −1.4.

And the “CGI-S, LS mean change from baseline” value ([1]; Week 16, 12 mg BID)?
Its value is −1.8.

And the “CGI-S, LS mean change from baseline” value ([1]; Week 20, 8 mg BID)?
The value was −1.8.

And the “CGI-S, LS mean change from baseline” value ([1]; Week 20, 12 mg BID)?
Its value is −2.1.

What about the “CGI-S, LS mean change from baseline” value ([1]; Week 24, 8 mg BID) of the same molecule?
The value was −2.1.

What about the “CGI-S, LS mean change from baseline” value ([1]; Week 24, 12 mg BID) of the same molecule?
Its value is −2.4.

What about the “PGI-S, LS mean change from baseline” value ([2]; Week 12, 8 mg BID) of the same molecule?
Its value is −1.6.

And the “PGI-S, LS mean change from baseline” value ([2]; Week 12, 12 mg BID)?
The value was −1.8.

And the “PGI-S, LS mean change from baseline” value ([2]; Week 16, 12 mg BID)?
The value was −2.0.

And the “PGI-S, LS mean change from baseline” value ([2]; Week 20, 8 mg BID)?
The value was −2.0.

What about the “PGI-S, LS mean change from baseline” value ([2]; Week 20, 12 mg BID) of the same molecule?
The value was −2.2.

What about the “PGI-S, LS mean change from baseline” value ([2]; Week 24, 8 mg BID) of the same molecule?
The value was −2.2.

What about the “PGI-S, LS mean change from baseline” value ([2]; Week 24, 12 mg BID) of the same molecule?
The value was −2.5.

What about the “effect of moderate renal impairment on Cmax” value [3, 4] of the same molecule?
The value was “without altering Cmax”.

What about the “increase of plasma AUC by moderate renal impairment” value [3, 4] of the same molecule?
Its value is “approximately 24%”.

What about the Tmax [3, 5] of the same molecule?
The Tmax was 0.5 h.

And the AUC(0-t) [3, 5]?
The AUC(0-t) was 1040 ng·h/mL.

What about the AUC(0-inf) [3, 5] of the same molecule?
Its AUC(0-inf) is 1050 ng·h/mL.

And the Cmax [3, 5]?
The Cmax was 207 ng/mL.

What about the Vd/F [3, 5] of the same molecule?
The Vd/F was 72.1 L.

And the half-life [3, 5]?
The half-life was 4.36 h.

And the Tmax ([3]; normal renal function N = 8)?
Its Tmax is 0.71 h.

What about the AUC(0-t) ([3]; normal renal function N = 8) of the same molecule?
Its AUC(0-t) is 836 ng·h/mL.

What about the AUC(0-inf) ([3]; normal renal function N = 8) of the same molecule?
The AUC(0-inf) was 843 ng·h/mL.

What about the Cmax ([3]; normal renal function N = 8) of the same molecule?
The Cmax was 199 ng/mL.

And the Vd/F ([3]; normal renal function N = 8)?
Its Vd/F is 85.6 L.

And the half-life ([3]; normal renal function N = 8)?
The half-life was 4.17 h.

What about the “CL/F (geometric mean)” value [3, 5] of the same molecule?
The value was 11.3 L/h.

What about the “Clast (geometric mean)” value [3, 5] of the same molecule?
Its value is 0.977 ng/mL.

And the “CL/F (geometric mean)” value ([3]; normal renal function N = 8)?
The value was 14.2 L/h.

And the “Clast (geometric mean)” value ([3]; normal renal function N = 8)?
The value was 0.698 ng/mL.
